Reference: ChEMBL document CHEMBL1130684, “Potent, non-thiol inhibitors of farnesyltransferase” (Bioorg Med Chem Lett, 1998)

Assays:
[1] = target: T1, Protein farnesyltransferase (Homo sapiens, UniProt P49354+P49356); assay: Inhibition of FTase-catalyzed incorporation of [3H]- FPP radioligand into recombinant Ha-Ras by 50% at an enzyme concentration of 1 nM.; assay type: protein-complex assay
[2] = target: T1, Protein farnesyltransferase; assay: Inhibition of [3H]- FPP incorporation into recombinant Ha-Ras by farnesyl transferase at 10 pM; assay type: protein-complex assay

IC50 [1] [nM]	IC50 [2] [nM]	SMILES
23		CCC(C)[C@@H](CN(CC(=O)N[C@@H](CCSC)C(=O)O)Cc1cccc2ccccc12)NC(=O)CSCc1cccc([N+](=O)[O-])c1 (some centres not stated)
230		CCC(C)[C@@H](CN(CC(=O)N[C@@H](CCSC)C(=O)O)Cc1cccc2ccccc12)NC(=O)COCc1ccccc1 (some centres not stated)
310		CCC(C)[C@@H](CN(CC(=O)N[C@@H](CCSC)C(=O)O)Cc1cccc2ccccc12)NC(=O)CS(=O)(=O)Cc1ccccc1 (some centres not stated)
160		CCC(C)[C@@H](CN(CC(=O)N[C@@H](CCSC)C(=O)O)Cc1cccc2ccccc12)NC(=O)C[S+]([O-])Cc1ccccc1 (some centres not stated)
17		CCC(C)[C@@H](CN(CC(=O)N[C@@H](CCSC)C(=O)O)Cc1cccc2ccccc12)NC(=O)CSCc1ccc(OC)cc1 (some centres not stated)
14		CCC(C)[C@@H](CN(CC(=O)N[C@@H](CCSC)C(=O)O)Cc1cccc2ccccc12)NC(=O)CSCc1ccc(C)cc1 (some centres not stated)
230		CCC(C)[C@@H](CN(CC(=O)N[C@@H](CCSC)C(=O)O)Cc1cccc2ccccc12)NC(=O)CCCCc1ccccc1 (some centres not stated)
86		CCC(C)[C@@H](CN(CC(=O)N[C@@H](CCSC)C(=O)O)Cc1cccc2ccccc12)NC(=O)CSCc1ccccc1[N+](=O)[O-] (some centres not stated)
36		CCC(C)[C@@H](CN(CC(=O)N[C@@H](CCSC)C(=O)O)Cc1cccc2ccccc12)NC(=O)CSCc1ccccc1 (some centres not stated)
51		CCC(C)[C@@H](CN(CC(=O)N[C@@H](CCSC)C(=O)O)Cc1cccc2ccccc12)NC(=O)CSc1ccccc1 (some centres not stated)
70		CCC(C)[C@@H](CN(CC(=O)N[C@@H](CCSC)C(=O)O)Cc1cccc2ccccc12)NC(=O)CN(Cc1ccccc1)C(C)=O (some centres not stated)
260		CCC(C)[C@@H](CN(CC(=O)N[C@@H](CCSC)C(=O)O)Cc1cccc2ccccc12)NC(=O)CN(Cc1ccccc1)C(=O)OC(C)(C)C (some centres not stated)
190		CCC(C)[C@@H](CN(CC(=O)N[C@@H](CCSC)C(=O)O)Cc1cccc2ccccc12)NC(=O)CNCc1ccccc1 (some centres not stated)
120		CCC(C)[C@@H](CN(CC(=O)N[C@@H](CCSC)C(=O)O)Cc1cccc2ccccc12)NC(=O)CSCCc1ccccc1 (some centres not stated)

Second part, the compound before the results:

SMILES	IC50 [1] [nM]	IC50 [2] [nM]
CCC(C)[C@@H](CN(CC(=O)N[C@@H](CCSC)C(=O)O)Cc1cccc2ccccc12)NC(=O)CCCc1ccc([N+](=O)[O-])cc1 (some centres not stated)	19	
CCC(C)[C@@H](CN(CC(=O)N[C@@H](CCSC)C(=O)O)Cc1cccc2ccccc12)NC(=O)CSCc1ccc([N+](=O)[O-])cc1 (some centres not stated)	6.2	
CCC(C)[C@@H](CN(CC(=O)N[C@@H](CCSC)C(=O)O)Cc1cccc2ccccc12)NC(=O)CSCc1ccncc1 (some centres not stated)	230	
CCC(C)[C@@H](CN(CC(=O)N[C@@H](CCSC)C(=O)O)Cc1ccccc1)NC(=O)CSc1nnc(N)s1 (some centres not stated)	> 10000	
CCC(C)[C@@H](CN(CC(=O)N[C@@H](CCSC)C(=O)O)Cc1ccccc1)NC(=O)CSc1nc2ccccc2[nH]1 (some centres not stated)	> 10000	
CCC(C)[C@@H](CN(CC(=O)N[C@@H](CCSC)C(=O)O)Cc1cccc2ccccc12)NCc1cnc[nH]1 (some centres not stated)	31	
CCC(C)[C@@H](CN(CC(=O)N[C@@H](CCSC)C(=O)O)Cc1cccc2ccccc12)NC(=O)CSCc1ccc(C#N)cc1 (some centres not stated)	5.4	
CCC(C)[C@@H](CN(CC(=O)N[C@@H](CCSC)C(=O)O)Cc1cccc2ccccc12)NC(=O)CSCc1ccc(S(C)(=O)=O)cc1 (some centres not stated)	16	
CCC(C)[C@@H](CN(CC(=O)N[C@@H](CCSC)C(=O)O)Cc1cccc2ccccc12)NC(=O)CSCc1ccc(-c2ccccc2)cc1 (some centres not stated)	29	
CCC(C)[C@@H](CN(CC(=O)N[C@@H](CCSC)C(=O)O)Cc1cccc2ccccc12)NC(=O)CSCc1ccc(C(F)(F)F)cc1 (some centres not stated)	37	
CCC(C)[C@@H](CN(CC(=O)N[C@@H](CCSC)C(=O)O)Cc1cccc2ccccc12)NC[C@@H](N)CS (some centres not stated)		0.123
CCC(C)[C@@H](CN(CC(=O)N[C@@H](CCSC)C(=O)O)Cc1cccc2ccccc12)NC(=O)CSc1ccncc1 (some centres not stated)	17	
CCC(C)[C@@H](CN(CC(=O)N[C@@H](CCSC)C(=O)O)Cc1ccccc1)NC(=O)CSc1nc[nH]n1 (some centres not stated)	> 10000	
